ChEMBL document CHEMBL3044736, “Synthesis, characterization, solvatochromic properties, and antimicrobial evaluation of 5-acetyl-2-thioxo-dihydro-pyrimidine-4,6-dione-based chalcones” (2013)
≈ marks a conversion by molar mass, not a printed value.

Experiments:
Format in all cases: functional
[1] = system: Penicillium; assay: Antimicrobial activity against Penicillium wild strain by agar cup diffusion method
[2] = system: Aspergillus clavatus; assay: Antimicrobial activity against Aspergillus clavatus MTCC 1323 by agar cup diffusion method
[3] = system: Trichophyton rubrum; assay: Antimicrobial activity against Trichophyton rubrum MTCC 296 by agar cup diffusion method
[4] = system: Candida albicans; assay: Antimicrobial activity against Candida albicans MTCC 227 by agar cup diffusion method
[5] = system: Penicillium; assay: Antimicrobial activity against Penicillium wild strain assessed as diameter of growth inhibition zone at 250 ug/ml after 48-96 hr by agar cup diffusion method; settings: read-out: DIZ
[6] = system: Penicillium; assay: Antimicrobial activity against Penicillium wild strain assessed as diameter of growth inhibition zone at 100 ug/ml after 48-96 hr by agar cup diffusion method; settings: read-out: DIZ
[7] = system: Trichophyton rubrum; assay: Antimicrobial activity against Trichophyton rubrum MTCC 296 assessed as diameter of growth inhibition zone at 100 ug/ml after 48-96 hr by agar cup diffusion method; settings: read-out: DIZ
[8] = system: Aspergillus clavatus; assay: Antimicrobial activity against Aspergillus clavatus MTCC 1323 assessed as diameter of growth inhibition zone at 100 ug/ml after 48-96 hr by agar cup diffusion method; settings: read-out: DIZ
[9] = system: Candida albicans; assay: Antimicrobial activity against Candida albicans MTCC 227 assessed as diameter of growth inhibition zone at 100 ug/ml after 48-96 hr by agar cup diffusion method; settings: read-out: DIZ
[10] = system: Penicillium; assay: Antimicrobial activity against Penicillium wild strain assessed as diameter of growth inhibition zone at 50 ug/ml after 48-96 hr by agar cup diffusion method; settings: read-out: DIZ
[11] = system: Trichophyton rubrum; assay: Antimicrobial activity against Trichophyton rubrum MTCC 296 assessed as diameter of growth inhibition zone at 50 ug/ml after 48-96 hr by agar cup diffusion method; settings: read-out: DIZ
[12] = system: Aspergillus clavatus; assay: Antimicrobial activity against Aspergillus clavatus MTCC 1323 assessed as diameter of growth inhibition zone at 50 ug/ml after 48-96 hr by agar cup diffusion method; settings: read-out: DIZ
[13] = system: Candida albicans; assay: Antimicrobial activity against Candida albicans MTCC 227 assessed as diameter of growth inhibition zone at 50 ug/ml after 48-96 hr by agar cup diffusion method; settings: read-out: DIZ
[14] = system: Penicillium; assay: Antimicrobial activity against Penicillium wild strain assessed as diameter of growth inhibition zone at 25 ug/ml after 48-96 hr by agar cup diffusion method; settings: read-out: DIZ
[15] = system: Trichophyton rubrum; assay: Antimicrobial activity against Trichophyton rubrum MTCC 296 assessed as diameter of growth inhibition zone at 25 ug/ml after 48-96 hr by agar cup diffusion method; settings: read-out: DIZ
[16] = system: Aspergillus clavatus; assay: Antimicrobial activity against Aspergillus clavatus MTCC 1323 assessed as diameter of growth inhibition zone at 25 ug/ml after 48-96 hr by agar cup diffusion method; settings: read-out: DIZ
[17] = system: Candida albicans; assay: Antimicrobial activity against Candida albicans MTCC 227 assessed as diameter of growth inhibition zone at 25 ug/ml after 48-96 hr by agar cup diffusion method; settings: read-out: DIZ
[18] = system: Pseudomonas aeruginosa; assay: Antimicrobial activity against Pseudomonas aeruginosa MTCC 1688 assessed as diameter of growth inhibition zone at 25 ug/ml after 18-24 hr by agar cup diffusion method; settings: read-out: DIZ
[19] = system: Escherichia coli; assay: Antimicrobial activity against Escherichia coli MTCC 443 assessed as diameter of growth inhibition zone at 25 ug/ml after 18-24 hr by agar cup diffusion method; settings: read-out: DIZ
[20] = system: Staphylococcus aureus; assay: Antimicrobial activity against Staphylococcus aureus MTCC 96 assessed as diameter of growth inhibition zone at 25 ug/ml after 18-24 hr by agar cup diffusion method; settings: read-out: DIZ
[21] = system: Streptococcus pyogenes; assay: Antimicrobial activity against Streptococcus pyogenes MTCC 442 assessed as diameter of growth inhibition zone at 25 ug/ml after 18-24 hr by agar cup diffusion method; settings: read-out: DIZ
[22] = system: Klebsiella pneumoniae; assay: Antimicrobial activity against Klebsiella pneumoniae MTCC 109 by agar cup diffusion method
[23] = system: Escherichia coli; assay: Antimicrobial activity against Escherichia coli MTCC 443 by agar cup diffusion method
[24] = system: Pseudomonas aeruginosa; assay: Antimicrobial activity against Pseudomonas aeruginosa MTCC 1688 by agar cup diffusion method
[25] = system: Staphylococcus aureus; assay: Antimicrobial activity against Staphylococcus aureus MTCC 96 by agar cup diffusion method
[26] = system: Streptococcus pyogenes; assay: Antimicrobial activity against Streptococcus pyogenes MTCC 442 by agar cup diffusion method
[27] = system: Klebsiella pneumoniae; assay: Antimicrobial activity against Klebsiella pneumoniae MTCC 109 assessed as diameter of growth inhibition zone at 250 ug/ml after 18-24 hr by agar cup diffusion method; settings: read-out: DIZ
[28] = system: Pseudomonas aeruginosa; assay: Antimicrobial activity against Pseudomonas aeruginosa MTCC 1688 assessed as diameter of growth inhibition zone at 250 ug/ml after 18-24 hr by agar cup diffusion method; settings: read-out: DIZ
[29] = system: Escherichia coli; assay: Antimicrobial activity against Escherichia coli MTCC 443 assessed as diameter of growth inhibition zone at 250 ug/ml after 18-24 hr by agar cup diffusion method; settings: read-out: DIZ
[30] = system: Staphylococcus aureus; assay: Antimicrobial activity against Staphylococcus aureus MTCC 96 assessed as diameter of growth inhibition zone at 250 ug/ml after 18-24 hr by agar cup diffusion method; settings: read-out: DIZ
[31] = system: Streptococcus pyogenes; assay: Antimicrobial activity against Streptococcus pyogenes MTCC 442 assessed as diameter of growth inhibition zone at 250 ug/ml after 18-24 hr by agar cup diffusion method; settings: read-out: DIZ
[32] = system: Klebsiella pneumoniae; assay: Antimicrobial activity against Klebsiella pneumoniae MTCC 109 assessed as diameter of growth inhibition zone at 100 ug/ml after 18-24 hr by agar cup diffusion method; settings: read-out: DIZ
[33] = system: Pseudomonas aeruginosa; assay: Antimicrobial activity against Pseudomonas aeruginosa MTCC 1688 assessed as diameter of growth inhibition zone at 100 ug/ml after 18-24 hr by agar cup diffusion method; settings: read-out: DIZ
[34] = system: Escherichia coli; assay: Antimicrobial activity against Escherichia coli MTCC 443 assessed as diameter of growth inhibition zone at 100 ug/ml after 18-24 hr by agar cup diffusion method; settings: read-out: DIZ
[35] = system: Staphylococcus aureus; assay: Antimicrobial activity against Staphylococcus aureus MTCC 96 assessed as diameter of growth inhibition zone at 100 ug/ml after 18-24 hr by agar cup diffusion method; settings: read-out: DIZ
[36] = system: Streptococcus pyogenes; assay: Antimicrobial activity against Streptococcus pyogenes MTCC 442 assessed as diameter of growth inhibition zone at 100 ug/ml after 18-24 hr by agar cup diffusion method; settings: read-out: DIZ
[37] = system: Klebsiella pneumoniae; assay: Antimicrobial activity against Klebsiella pneumoniae MTCC 109 assessed as diameter of growth inhibition zone at 50 ug/ml after 18-24 hr by agar cup diffusion method; settings: read-out: DIZ
[38] = system: Pseudomonas aeruginosa; assay: Antimicrobial activity against Pseudomonas aeruginosa MTCC 1688 assessed as diameter of growth inhibition zone at 50 ug/ml after 18-24 hr by agar cup diffusion method; settings: read-out: DIZ
[39] = system: Escherichia coli; assay: Antimicrobial activity against Escherichia coli MTCC 443 assessed as diameter of growth inhibition zone at 50 ug/ml after 18-24 hr by agar cup diffusion method; settings: read-out: DIZ
[40] = system: Staphylococcus aureus; assay: Antimicrobial activity against Staphylococcus aureus MTCC 96 assessed as diameter of growth inhibition zone at 50 ug/ml after 18-24 hr by agar cup diffusion method; settings: read-out: DIZ
[41] = system: Streptococcus pyogenes; assay: Antimicrobial activity against Streptococcus pyogenes MTCC 442 assessed as diameter of growth inhibition zone at 50 ug/ml after 18-24 hr by agar cup diffusion method; settings: read-out: DIZ
[42] = system: Klebsiella pneumoniae; assay: Antimicrobial activity against Klebsiella pneumoniae MTCC 109 assessed as diameter of growth inhibition zone at 25 ug/ml after 18-24 hr by agar cup diffusion method; settings: read-out: DIZ
[43] = system: Trichophyton rubrum; assay: Antimicrobial activity against Trichophyton rubrum MTCC 296 assessed as diameter of growth inhibition zone at 250 ug/ml after 48-96 hr by agar cup diffusion method; settings: read-out: DIZ
[44] = system: Aspergillus clavatus; assay: Antimicrobial activity against Aspergillus clavatus MTCC 1323 assessed as diameter of growth inhibition zone at 250 ug/ml after 48-96 hr by agar cup diffusion method; settings: read-out: DIZ
[45] = system: Candida albicans; assay: Antimicrobial activity against Candida albicans MTCC 227 assessed as diameter of growth inhibition zone at 250 ug/ml after 48-96 hr by agar cup diffusion method; settings: read-out: DIZ

SMILES: COC1=CC(=O)C[C@@H](C)[C@]12Oc1c(Cl)c(OC)cc(OC)c1C2=O [GRISEOFULVIN]
- MIC [1]: 100 µg/mL (≈ 283 µM)
- MIC [2]: 100 µg/mL (≈ 283 µM)
- MIC [3]: 500 µg/mL (≈ 1420 µM)
- MIC [4]: 100 µg/mL (≈ 283 µM)

SMILES: O=C(/C=C/c1ccccc1)C1C(=O)NC(=S)NC1=O
- zone of inhibition at 250 µg/mL [5]: 24 mm
- zone of inhibition at 100 µg/mL [6]: 22 mm
- zone of inhibition at 100 µg/mL [7]: 24 mm
- zone of inhibition at 100 µg/mL [8]: 21 mm
- zone of inhibition at 100 µg/mL [9]: 22 mm
- zone of inhibition at 50 µg/mL [10]: 21 mm
- zone of inhibition at 50 µg/mL [11]: 24 mm
- zone of inhibition at 50 µg/mL [12]: 19 mm
- zone of inhibition at 50 µg/mL [13]: 18 mm
- zone of inhibition at 25 µg/mL [14]: 19 mm
- zone of inhibition at 25 µg/mL [15]: 20 mm
- zone of inhibition at 25 µg/mL [16]: 18 mm
- zone of inhibition at 25 µg/mL [17]: 16 mm
- MFC [1]: > 1000 µg/mL
- MIC [1]: 1000 µg/mL (≈ 3650 µM)
- MFC [2]: 1000 µg/mL (≈ 3650 µM)
- MIC [2]: 1000 µg/mL (≈ 3650 µM)
- zone of inhibition at 25 µg/mL [18]: 10 mm
- zone of inhibition at 25 µg/mL [19]: 12 mm
- zone of inhibition at 25 µg/mL [20]: 10 mm
- zone of inhibition at 25 µg/mL [21]: 12 mm
- MBC [22]: 250 µg/mL (≈ 911 µM)
- MIC [22]: 200 µg/mL (≈ 729 µM)
- MBC [23]: 500 µg/mL (≈ 1820 µM)
- MIC [23]: 250 µg/mL (≈ 911 µM)
- MBC [24]: 250 µg/mL (≈ 911 µM)
- MIC [24]: 250 µg/mL (≈ 911 µM)
- MBC [25]: 250 µg/mL (≈ 911 µM)
- MIC [25]: 250 µg/mL (≈ 911 µM)
- MBC [26]: 500 µg/mL (≈ 1820 µM)
- MIC [26]: 250 µg/mL (≈ 911 µM)
- MFC [3]: 1000 µg/mL (≈ 3650 µM)
- MIC [3]: 1000 µg/mL (≈ 3650 µM)
- MFC [4]: 1000 µg/mL (≈ 3650 µM)
- MIC [4]: 500 µg/mL (≈ 1820 µM)
- zone of inhibition at 250 µg/mL [27]: 17 mm
- zone of inhibition at 250 µg/mL [28]: 17 mm
- zone of inhibition at 250 µg/mL [29]: 17 mm
- zone of inhibition at 250 µg/mL [30]: 17 mm
- zone of inhibition at 250 µg/mL [31]: 17 mm
- zone of inhibition at 100 µg/mL [32]: 14 mm
- zone of inhibition at 100 µg/mL [33]: 15 mm
- zone of inhibition at 100 µg/mL [34]: 15 mm
- zone of inhibition at 100 µg/mL [35]: 15 mm
- zone of inhibition at 100 µg/mL [36]: 15 mm
- zone of inhibition at 50 µg/mL [37]: 12 mm
- zone of inhibition at 50 µg/mL [38]: 13 mm
- zone of inhibition at 50 µg/mL [39]: 15 mm
- zone of inhibition at 50 µg/mL [40]: 13 mm
- zone of inhibition at 50 µg/mL [41]: 15 mm
- zone of inhibition at 25 µg/mL [42]: 10 mm
- zone of inhibition at 250 µg/mL [43]: 25 mm
- zone of inhibition at 250 µg/mL [44]: 24 mm
- zone of inhibition at 250 µg/mL [45]: 22 mm
